Measured values published in ChEMBL document CHEMBL1201862, “PubChem BioAssay data set” (2004).
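The compound was tested at five concentrations on cells cultured in 96-well plates, with a 48-hour exposure period. The concentration for 50% growth inhibition is given as GI50.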 Active and inactive are the calls of the source. Cut-off read from the data, not from the text of the source: active = GI50 up to about 1.1 µM and inactive = higher.

Experiments:
Assay in all cases: NCI-60 cell line screen, 48 h
[1] = system: ACHN
[2] = system: OVCAR-8
[3] = system: SF-295
[4] = system: NCI-H460
[5] = system: UACC-257
[6] = system: SNB-19
[7] = system: HOP-18
[8] = system: SK-MEL-5
[9] = system: HCC 2998
[10] = system: 786-0
[11] = system: COLO 205
[12] = system: A549
[13] = system: UACC-62
[14] = system: M14
[15] = system: RXF 393
[16] = system: EKVX
[17] = system: OVCAR-4
[18] = system: CAKI-1
[19] = system: NCI/ADR-RES
[20] = system: MCF7

Row | SMILES | GI50 [1] | GI50 [2] | GI50 [3] | GI50 [4] | GI50 [5] | GI50 [6] | GI50 [7] | GI50 [8] | GI50 [9] | GI50 [10] | GI50 [11] | GI50 [12] | GI50 [13] | GI50 [14] | GI50 [15] | GI50 [16] | GI50 [17] | GI50 [18] | GI50 [19] | GI50 [20]
1 | CC(C)=CC1CCc2ccccc2N1S(=O)(=O)c1ccc(C)cc1 (stereo not given) | 3.31 µM (inactive) | 2.72 µM (inactive) | 1.5 µM (inactive) | 1.36 µM (inactive) | 2.27 µM (inactive) | 3.46 µM (inactive) | 4.19 µM (inactive) | 0.589 µM (active) | 1.27 µM (inactive) | 2.35 µM (inactive) | 1.06 µM (active) | 1.22 µM (inactive) | 0.982 µM (active) | 1.27 µM (inactive) | 1.24 µM (inactive) | 10.6 µM (inactive) | 4.31 µM (inactive) |  |  | 
2 | CC1NOC(=O)C1/N=N/c1ccccc1Br (stereo not given) | 35.3 µM (inactive) | 22 µM (inactive) | 40.7 µM (inactive) | 21.7 µM (inactive) | 24 µM (inactive) | 37.4 µM (inactive) | 26.5 µM (inactive) | 15.3 µM (inactive) | 41.2 µM (inactive) | 17.5 µM (inactive) | 20.6 µM (inactive) | 24.2 µM (inactive) | 19.9 µM (inactive) | 21.4 µM (inactive) | 13.9 µM (inactive) | 34.2 µM (inactive) | 39.3 µM (inactive) | 16.8 µM (inactive) |  | 
3 | COc1ccccc1NC(=O)C1=C(C)NC(C)=C(C(=O)Nc2ccccc2OC)C1c1ccccc1F | 51.6 µM (inactive) | > 100 µM (inactive) | > 100 µM (inactive) | 67.9 µM (inactive) | > 100 µM (inactive) | > 100 µM (inactive) | > 100 µM (inactive) | 41.6 µM (inactive) | > 100 µM (inactive) | > 100 µM (inactive) | > 100 µM (inactive) | 57.4 µM (inactive) | 81.7 µM (inactive) | > 100 µM (inactive) |  | 50.2 µM (inactive) | > 100 µM (inactive) | > 100 µM (inactive) |  | 
4 | IC[P+]1(c2ccccc2)CCCC1 | 82.4 µM (inactive) | 32.4 µM (inactive) | 40.1 µM (inactive) | 31.9 µM (inactive) | 52.4 µM (inactive) | 59.6 µM (inactive) | 58.7 µM (inactive) | 19.1 µM (inactive) | > 100 µM (inactive) | > 100 µM (inactive) | 14 µM (inactive) | 28.7 µM (inactive) | > 100 µM (inactive) | 46.5 µM (inactive) | 76.7 µM (inactive) | 16.7 µM (inactive) |  |  |  | 
5 | COc1ccc(-c2cc(O)c3cc4c(cc3n2)OCO4)c(OC)c1 | 37.1 µM (inactive) | 96.6 µM (inactive) |  | 40.2 µM (inactive) |  | 67.6 µM (inactive) | 56.4 µM (inactive) | 26.5 µM (inactive) | 50.7 µM (inactive) | > 100 µM (inactive) | 46.2 µM (inactive) | 41.8 µM (inactive) | 28.3 µM (inactive) | 33.5 µM (inactive) |  | 82.4 µM (inactive) | 71.1 µM (inactive) | > 100 µM (inactive) |  | 
6 | CNC(=O)OCc1nc(SC(C)C)n(C)c1COC(=O)NC | > 100 µM (inactive) | > 100 µM (inactive) | > 100 µM (inactive) | 72.8 µM (inactive) | > 100 µM (inactive) | > 100 µM (inactive) | > 100 µM (inactive) | > 100 µM (inactive) | > 100 µM (inactive) | > 100 µM (inactive) | > 100 µM (inactive) | > 100 µM (inactive) | > 100 µM (inactive) | > 100 µM (inactive) | 33.4 µM (inactive) | > 100 µM (inactive) | > 100 µM (inactive) | > 72.3 µM (inactive) | > 100 µM (inactive) | > 100 µM (inactive)
7 | N/N=C1/C(=O)N(c2ccc(Cl)cc2)C(=O)C(=O)C1c1nc2ccccc2s1 (stereo not given) | > 100 µM (inactive) | > 100 µM (inactive) | > 100 µM (inactive) | > 100 µM (inactive) | > 100 µM (inactive) | > 100 µM (inactive) | > 100 µM (inactive) | > 100 µM (inactive) | > 100 µM (inactive) | > 100 µM (inactive) | > 100 µM (inactive) | > 100 µM (inactive) | > 100 µM (inactive) | > 100 µM (inactive) | > 100 µM (inactive) | > 100 µM (inactive) | > 100 µM (inactive) | > 68.2 µM (inactive) |  | 
8 | O=C(NP(=O)(N1CC1)N1CC1)c1cc(I)ccc1I [DIIODBENZOTEPH] | 6.05 µM (inactive) | 31.2 µM (inactive) | 30 µM (inactive) | 3.72 µM (inactive) | > 64.3 µM (inactive) | 53.7 µM (inactive) | > 92.3 µM (inactive) | 43.1 µM (inactive) | > 67.9 µM (inactive) | 21.9 µM (inactive) | > 91.4 µM (inactive) | 23.6 µM (inactive) | 10.4 µM (inactive) | 34.8 µM (inactive) | 34.6 µM (inactive) | 78 µM (inactive) | 77.3 µM (inactive) | > 22.3 µM (inactive) | 23.3 µM (inactive) | 38 µM (inactive)
9 | [O-][S+]1c2ccc(Cl)cc2CC(SSC2Cc3cc(Cl)ccc3[S+]([O-])c3ccccc32)c2ccccc21 (stereo not given) | > 100 µM (inactive) | > 100 µM (inactive) | > 100 µM (inactive) | > 100 µM (inactive) | > 100 µM (inactive) | > 100 µM (inactive) | > 100 µM (inactive) | > 100 µM (inactive) | > 100 µM (inactive) | > 100 µM (inactive) | > 100 µM (inactive) | > 100 µM (inactive) | > 100 µM (inactive) | > 100 µM (inactive) | > 100 µM (inactive) | > 100 µM (inactive) | > 100 µM (inactive) | > 100 µM (inactive) |  | 
10 | CC(=O)C1(O)Cc2c(O)c3c(c(O)c2C(OC2CC(N)C(O)C(C)O2)C1)C(=O)c1ccccc1C3=O (stereo not given) | 0.00438 µM (active) | 0.0327 µM (active) | 0.0141 µM (active) | 0.000569 µM (active) | 0.121 µM (active) | 0.0373 µM (active) | 0.01 µM (active) | 0.0241 µM (active) | 0.0385 µM (active) | 0.0152 µM (active) | 0.0796 µM (active) | 0.0248 µM (active) | 0.0303 µM (active) | 0.0452 µM (active) |  | 0.193 µM (active) | 0.327 µM (active) | 0.00836 µM (active) | 0.297 µM (active) | 0.00458 µM (active)
11 | CC(=O)NNc1nc(C)c(C(=O)NNC(=O)C(=O)Nc2ccc(C)c(C)c2)s1 | > 100 µM (inactive) | 55.5 µM (inactive) | 78.5 µM (inactive) | 95.3 µM (inactive) | > 100 µM (inactive) | > 100 µM (inactive) | > 100 µM (inactive) | > 100 µM (inactive) | > 100 µM (inactive) | > 100 µM (inactive) | > 100 µM (inactive) | > 100 µM (inactive) | > 100 µM (inactive) | > 100 µM (inactive) | > 100 µM (inactive) | > 100 µM (inactive) | 72.9 µM (inactive) | > 100 µM (inactive) |  | 
12 | Cn1nc(-c2ccccc2)c(C(=O)/C=C/c2ccc(Cl)cc2)c(N2CCCCC2)c1=O | 1.92 µM (inactive) | 3.8 µM (inactive) | 0.719 µM (active) | 2.52 µM (inactive) |  | 2.14 µM (inactive) | 2.16 µM (inactive) | 1.95 µM (inactive) |  | 1.69 µM (inactive) | 2.23 µM (inactive) | 2.92 µM (inactive) | 2.2 µM (inactive) | 3.15 µM (inactive) | 1.32 µM (inactive) | 3.85 µM (inactive) |  | 0.826 µM (active) |  | 
13 | COC(=O)C1=C(C)N(NC(N)=O)C(C)(O)C12CCOC2=O (stereo not given) | > 100 µM (inactive) | > 100 µM (inactive) | > 100 µM (inactive) | > 100 µM (inactive) | > 100 µM (inactive) | > 100 µM (inactive) | > 100 µM (inactive) |  | < 0.01 µM (active) | > 100 µM (inactive) | > 100 µM (inactive) | > 100 µM (inactive) | > 10 µM (inactive) | > 100 µM (inactive) |  | > 100 µM (inactive) | > 100 µM (inactive) | > 100 µM (inactive) |  | 
14 | O=C1CCCCC/C=C2/CC[C@H](Sc3ccccc3)[C@@H]12 | 42.5 µM (inactive) | 74.1 µM (inactive) | 40.6 µM (inactive) | 94.4 µM (inactive) | > 100 µM (inactive) | 73.8 µM (inactive) | 43.8 µM (inactive) | > 100 µM (inactive) |  | > 100 µM (inactive) | > 100 µM (inactive) | 34.3 µM (inactive) | > 100 µM (inactive) | > 100 µM (inactive) | 37.8 µM (inactive) | 38.3 µM (inactive) | > 100 µM (inactive) |  |  | 
15 | O=C(Nc1ccccc1)O/N=C1/CCCC/C1=C\c1ccccc1 | 16.4 µM (inactive) | 18.1 µM (inactive) | 16.1 µM (inactive) | 15.1 µM (inactive) | 19.5 µM (inactive) |  | 13.7 µM (inactive) | 13 µM (inactive) | 20.6 µM (inactive) | 16.7 µM (inactive) | 14.5 µM (inactive) |  | 15.7 µM (inactive) | 17.8 µM (inactive) | 16.3 µM (inactive) |  | 14.8 µM (inactive) | 15.7 µM (inactive) |  | 
16 | O=C(CN1CCCCC1)N1CCc2c([nH]c3ccccc23)C1c1cccnc1 (stereo not given) | > 100 µM (inactive) | > 100 µM (inactive) | > 100 µM (inactive) | > 100 µM (inactive) | > 100 µM (inactive) | > 100 µM (inactive) | > 100 µM (inactive) | > 100 µM (inactive) | > 100 µM (inactive) | > 100 µM (inactive) |  | > 100 µM (inactive) | > 100 µM (inactive) | > 100 µM (inactive) | 40.5 µM (inactive) | > 100 µM (inactive) | > 100 µM (inactive) | > 100 µM (inactive) |  | 
